Like-named read-outs stand apart in the source and are kept apart here.
Assays:
Adenosine A2A Receptor = molecular target: T1, Adenosine A2A Receptor (Homo sapiens, UniProt P29274); assay: A2A Tag-lite HTRF assay; type: binding; details: Tag-lite Adenosine A2A labeled cells; fluorescent antagonist ligand 12.5 nM
T1 construct: Tag-lite label (own knowledge: SNAP-tag fusion labeled with terbium); purchased CisBio C1TT1A2A
Procedure: Test compounds were first serially diluted in DMSO and 100 nL added to the plate wells before the addition of other reaction components. The final concentration of DMSO was 1%. Tag-lite® Adenosine A2A labeled cells (CisBio C1TT1A2A) were diluted 1:5 into Tag-lite buffer (CisBio LABMED) and spun 1200 g for 5 mins.

[1] = molecular target: T2, human adenosine A2B receptor (Homo sapiens, UniProt P29275); assay: Adenosine A2B Receptor cyclic AMP GS Assay; type: cell-based
T2 construct: host or cells: HEK-293 (stably transfected)
T2 sequence (P29275 1-332): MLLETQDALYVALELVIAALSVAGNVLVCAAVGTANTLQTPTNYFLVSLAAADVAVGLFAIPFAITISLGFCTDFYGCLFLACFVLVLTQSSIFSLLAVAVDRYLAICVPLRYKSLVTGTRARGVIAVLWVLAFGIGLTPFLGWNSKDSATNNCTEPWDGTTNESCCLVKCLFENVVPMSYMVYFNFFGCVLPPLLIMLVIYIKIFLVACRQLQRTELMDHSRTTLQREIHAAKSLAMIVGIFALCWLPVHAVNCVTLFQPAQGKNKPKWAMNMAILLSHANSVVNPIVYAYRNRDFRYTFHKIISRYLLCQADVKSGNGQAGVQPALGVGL
Procedure: Stably transfected HEK-293 cells expressing the human adenosine A2B receptor (Perkin Elmer) were maintained in MEM culture medium with 10% FBS and 100 μg/mL Geneticin (Life Technologies). 18 to 24 hours prior to assay, geneticin was removed from culture. The cisbio cAMP-GS Dynamic kit utilizing the FRET (Fluorescence Resonance Energy Transfer) technology was used to measure cAMP accumulation in the cells. Compounds of the present disclosure at an appropriate concentration were mixed with 10000 cells/well in white 96 well half area plates (Perkin Elmer) for 30 min at RT gently shaking. […] Detection reagents, d2-labeled cAMP (acceptor) and anti-cAMP cryptate (donor) were added to each well for 60 min at RT gently shaking.

[2] = tested on: human breast adenocarcinoma tumor, MDA-MB-231; assay: Anti-tumor efficacy in humanized murine host carrying MDA-MB-231 tumor; type: in vivo, human CD34+ reconstituted mice; details: vs Vehicle + IgG isotype, ANTIBODY Y 10 mg/kg i.p. every 5 days, retifanlimab 1 mg/mL i.p. every 5 days, Compound 9 10 mg/kg p.o. b.i.d., dosing day 7-35
Procedure: On day 7, and every 3 to 4 days subsequently, tumors were measured by Vernier caliper and tumor volume was calculated by the formula, Volume=[L (long dimension)×W^2 (short dimension)]/2. Based on these measurements, mice were randomized into 8 treatment groups of 10 mice each with an average starting tumor volume of 180 mm^3. The studied agents were formulated and administered as follows: ANTIBODY Y was diluted to a final concentration of 1 mg/mL in phosphate-buffered saline and administered by intraperitoneal (i.p.) injection at 10 mL/kg to mice for a dose of 10 mg/kg, every 5 days. Retifanlimab (Macrogenics) was diluted to 1 mg/mL and dosed i.p., every 5 days. For combination treatments, the two antibodies were co-formulated to a concentration of 1 mg/mL, each. The oral vehicle was 5% N,N-dimethylacetamide in 0.5% methyl-cellulose in 50 mM citrate buffer, pH 3.0 (all reagents obtained from Sigma) and was administered by oral gavage (p.o.) twice daily (b.i.d.).
Dosing began at day 7, and ran for 28 days, through day 35. […]
Tumor Growth Inhibition (TGI), defined as (1-treatment group volume)/control group volume)×100 was analyzed for the whole study on day 47, the last day prior to some animals leaving the study at their endpoint. […]

[3] = HEK-293 cells expressing human A2B, agonist NECA 12 nM, cAMP accumulation, read-out: A2B—cAMP_EC50

T1 sequence (P29274 whole entry, the tested form may be a part): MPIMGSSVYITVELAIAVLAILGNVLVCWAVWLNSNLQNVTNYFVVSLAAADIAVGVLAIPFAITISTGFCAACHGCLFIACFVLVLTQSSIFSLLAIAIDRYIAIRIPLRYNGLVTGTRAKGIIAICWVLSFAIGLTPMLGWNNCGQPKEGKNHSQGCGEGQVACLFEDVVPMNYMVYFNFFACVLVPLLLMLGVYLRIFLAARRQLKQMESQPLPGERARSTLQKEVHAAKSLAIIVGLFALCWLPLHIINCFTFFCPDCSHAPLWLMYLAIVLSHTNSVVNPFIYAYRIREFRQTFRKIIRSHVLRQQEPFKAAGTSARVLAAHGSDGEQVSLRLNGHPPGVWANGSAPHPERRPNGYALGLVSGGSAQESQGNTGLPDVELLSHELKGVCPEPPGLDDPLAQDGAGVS

Compound | Ki (Adenosine A2A Receptor) [nM] | other results
N#Cc1cccc(-c2nc(N)n3nc(C(O)c4c(F)cccc4F)nc3c2-c2ccncn2)c1 (single isomer, unassigned) [Compound 2, 3-(5-Amino-2-((2,6-difluorophenyl)(hydroxy)methyl)-8-(pyrimidin-4-yl)-[1,2,4]triazolo[1,5-c]pyrimidin-7-yl)benzonitrile] | < 10 | –
Cc1ncoc1-c1c(-c2cccc(C#N)c2)nc(N)c2nc(C(N)c3c(F)cccc3F)nn12 (single isomer, unassigned) [Compound 11, 3-(8-amino-2-(amino(2,6-difluorophenyl)methyl)-5-(4-methyloxazol-5-yl)-[1,2,4]triazolo[1,5-a]pyrazin-6-yl)benzonitrile] | < 10 | EC50 [1]: < 10 nM
N#Cc1cccc(-c2nc(N)n3nc(Cc4ccccn4)nc3c2-c2ccncn2)c1 [Compound 1, 3-(5-Amino-2-(pyridin-2-ylmethyl)-8-(pyrimidin-4-yl)-[1,2,4]triazolo[1,5-c]pyrimidin-7-yl)benzonitrile] | < 10 | –
Cc1cccnc1COc1nc2c(-c3ccncn3)c(-c3cccc(C#N)c3)nc(N)n2n1 [Compound 4, 3-(5-Amino-2-((3-methylpyridin-2-yl)methoxy)-8-(pyrimidin-4-yl)-[1,2,4]triazolo[1,5-c]pyrimidin-7-yl)benzonitrile] | < 10 | –
N#Cc1cccc(-c2cc3nc(C(O)c4ccccc4)nn3c(N)n2)c1 (stereo not shown) [Compound 5, 3-(5-Amino-2-(hydroxy(phenyl)methyl)-[1,2,4]triazolo[1,5-c]pyrimidin-7-yl)benzonitrile] | < 10 | EC50 [1, 3]: < 10 nM
N#Cc1cccc(-c2nc(N)n3nc(C(O)c4c(F)cccc4F)nc3c2C#N)c1F (stereo not shown) [Compound 7, 5-Amino-7-(3-cyano-2-fluorophenyl)-2-((2,6-difluorophenyl)(hydroxy)methyl)-[1,2,4]triazolo[1,5-c]pyrimidine-8-carbonitrile] | < 10 | EC50 [1, 3]: < 10 nM
Cn1nc(-c2c(-c3cccc(C#N)c3)nc(N)c3nc(Cc4ccccn4)nn23)ccc1=O [Compound 9, 3-(8-Amino-5-(1-methyl-6-oxo-1,6-dihydropyridazin-3-yl)-2-(pyridin-2-ylmethyl)-[1,2,4]triazolo[1,5-a]pyrazin-6-yl)benzonitrile] | – | Percent TGI (Day 47 Tumor Growth Inhibition) [2]: 18.42%
N#Cc1cccc(-c2nc(N)c3nn(Cc4ccccn4)nc3c2-c2ccncn2)c1 [Compound 13, 3-(4-amino-2-(pyridin-2-ylmethyl)-7-(pyrimidin-4-yl)-2H-[1,2,3]triazolo[4,5-c]pyridin-6-yl)benzonitrile] | < 10 | –
CCCCCn1c2cc(-c3cnn(Cc4cncc(Cl)c4)c3)[nH]c2c(=O)n2c(C)nnc12 [Compound 17, 7-(1-((5-Chloropyridin-3-yl)methyl)-1H-pyrazol-4-yl)-3-methyl-9-pentyl-6,9-dihydro-5H-pyrrolo[3,2-d][1,2,4]triazolo[4,3-a]pyrimidin-5-one] | < 10 | –
CCCCCn1c2cc(-c3cnn(Cc4cncc(C)c4)c3)[nH]c2c(=O)n2c(C)nnc12 [Compound 18, 3-Methyl-7-(1-((5-methylpyridin-3-yl)methyl)-1H-pyrazol-4-yl)-9-pentyl-6,9-dihydro-5H-pyrrolo[3,2-d][1,2,4]triazolo[4,3-a]pyrimidin-5-one] | < 10 | –
retifanlimab: humanized IgG4 monoclonal antibody that binds to human PD-1; heavy chain SEQ ID NO:2, light chain SEQ ID NO:3 | – | Percent TGI (Day 47 Tumor Growth Inhibition) [2]: 9.57%

Further lines, with some results ahead:

Ki (Adenosine A2A Receptor) [nM] | Compound | other results
< 10 | CN1CCC(NCc2cccc(F)c2C(O)c2nc3cc(-c4cccc(C#N)c4F)nc(N)n3n2)C1=O (single isomer, unassigned) [Compound 8, 3-(5-Amino-2-((2-fluoro-6-(((1-methyl-2-oxopyrrolidin-3-yl)amino)methyl)phenyl)(hydroxy)methyl)-[1,2,4]triazolo[1,5-c]pyrimidin-7-yl)-2-fluorobenzonitrile] | –
< 10 | N#Cc1cccc(-c2cc3nc(C(O)c4c(F)cccc4F)nn3c(N)n2)c1F (stereo not shown) [Compound 6, 3-(5-Amino-2-((2,6-difluorophenyl)(hydroxy)methyl)-[1,2,4]triazolo[1,5-c]pyrimidin-7-yl)-2-fluorobenzonitrile] | EC50 [1, 3]: < 10 nM
< 10 | N#Cc1cccc(-c2nc(N)c3nn(Cc4ncccc4F)nc3c2-c2ccncn2)c1 [Compound 14, 3-(4-amino-2-((3-fluoropyridin-2-yl)methyl)-7-(pyrimidin-4-yl)-2H-[1,2,3]triazolo[4,5-c]pyridin-6-yl)benzonitrile] | –
< 10 | N#Cc1cccc(-c2nc(N)c3nn(Cc4ncccc4F)nc3c2-c2ccncc2)c1 [Compound 15, 3-(4-amino-2-((3-fluoropyridin-2-yl)methyl)-7-(pyridin-4-yl)-2H-[1,2,3]triazolo[4,5-c]pyridin-6-yl)benzonitrile] | –
< 10 | Cn1nccc1-c1c(-c2cccc(C#N)c2F)nc(N)c2nn(Cc3ccccn3)nc12 [Compound 16, 3-(4-amino-7-(1-methyl-1H-pyrazol-5-yl)-2-(pyridin-2-ylmethyl)-2H-[1,2,3]triazolo[4,5-c]pyridin-6-yl)-2-fluorobenzonitrile] | –
< 10 | CCCCCn1c2cc(-c3cnn(Cc4cnc5ccsc5c4)c3)[nH]c2c(=O)n2c(C)nnc12 [Compound 19, 3-Methyl-9-pentyl-7-(1-(thieno[3,2-b]pyridin-6-ylmethyl)-1H-pyrazol-4-yl)-6,9-dihydro-5H-pyrrolo[3,2-d][1,2,4]triazolo[4,3-a]pyrimidin-5-one] | –
< 10 | CCCCCn1c2cc(-c3cnn(Cc4ccc5c(c4)CCN(C(=O)CN(C)C)C5)c3)[nH]c2c(=O)n2c(C)nnc12 [Compound 20, 7-(1-((2-(2-(Dimethylamino)acetyl)-1,2,3,4-tetrahydroisoquinolin-6-yl)methyl)-1H-pyrazol-4-yl)-3-methyl-9-pentyl-6,9-dihydro-5H-pyrrolo[3,2-d][1,2,4]triazolo[4,3-a]pyrimidin-5-one] | –

From patent US20220233529A1, “COMBINATION THERAPY COMPRISING A2A/A2B INHIBITORS, PD-1/PD-L1 INHIBITORS, AND ANTI-CD73 ANTIBODIES” (Incyte Corporation, priority 2020, published 2022)
